Where two headings read alike, the source gives them in different places.
System: panel of 55 breast cancer cell lines
Experiment: Cell growth inhibition assay (Cell Titer Glo, 72 h, 9 doses; GI50, TGI, LC50)
Format: cell-based, human
Details: Homo sapiens, read-out: GI50 (converted)

NS(=O)(=O)OC[C@@H]1C[C@@H](n2ccc3c(N[C@H]4CCc5ccccc54)ncnc32)C[C@@H]1O [MLN4924]
GI50 (AU565, cell line AU565, censored GI50 values): 182 nM | GI50 (AU565, cell line AU565): 182 nM | GI50 (BT-20, cell line BT20, censored GI50 values): 2750 nM | GI50 (BT-20, cell line BT20): 2750 nM | GI50 (BT-474, cell line BT474, censored GI50 values): 575 nM | GI50 (BT-474, cell line BT474): 575 nM | GI50 (BT-483, cell line BT483, censored GI50 values): 33100 nM | GI50 (BT-483, cell line BT483): 33100 nM | GI50 (CAMA-1, cell line CAMA1, censored GI50 values): 51.3 nM | GI50 (CAMA-1, cell line CAMA1): 51.3 nM | GI50 (HCC38, cell line HCC38, censored GI50 values): 27.5 nM | GI50 (HCC38, cell line HCC38): 27.5 nM | GI50 (HCC70, cell line HCC70, censored GI50 values): 33100 nM | GI50 (HCC70, cell line HCC70): 33100 nM | GI50 (HCC1143, cell line HCC1143, censored GI50 values): 245 nM | GI50 (HCC1143, cell line HCC1143): 245 nM | GI50 (HCC1187, cell line HCC1187, censored GI50 values): 501 nM | GI50 (HCC1187, cell line HCC1187): 501 nM | GI50 (HCC1419, cell line HCC1419, censored GI50 values): 22.9 nM | GI50 (HCC1419, cell line HCC1419): 22.9 nM | GI50 (HCC1428, cell line HCC1428, censored GI50 values): 117 nM | GI50 (HCC1428, cell line HCC1428): 117 nM | GI50 (HCC1500, cell line HCC1500, censored GI50 values): 11.7 nM | GI50 (HCC1500, cell line HCC1500): 11.7 nM | GI50 (HCC1806, cell line HCC1806, censored GI50 values): 21.4 nM | GI50 (HCC1806, cell line HCC1806): 21.4 nM | GI50 (HCC1937, cell line HCC1937, censored GI50 values): 2630 nM | GI50 (HCC1937, cell line HCC1937): 2630 nM | GI50 (HCC1954, cell line HCC1954, censored GI50 values): 4470 nM | GI50 (HCC1954, cell line HCC1954): 4470 nM | GI50 (MDA-MB-134-VI, cell line MDAMB134VI, censored GI50 values): 52.5 nM | GI50 (MDA-MB-175-VII, cell line MDAMB175VII, censored GI50 values): 427 nM | GI50 (MDA-MB-415, cell line MDAMB415, censored GI50 values): 74.1 nM | GI50 (MDA-MB-415, cell line MDAMB415): 74.1 nM | GI50 (MDA-MB-436, cell line MDAMB436, censored GI50 values): 269 nM | GI50 (MDA-MB-436, cell line MDAMB436): 269 nM | GI50 (MDA-MB-453, cell line MDAMB453, censored GI50 values): 2190 nM | GI50 (MDA-MB-453, cell line MDAMB453): 2190 nM | GI50 (MDA-MB-468, cell line MDAMB468, censored GI50 values): 204 nM | GI50 (MDA-MB-468, cell line MDAMB468): 204 nM | GI50 (SK-BR-3, cell line SKBR3, censored GI50 values): 151 nM | GI50 (SK-BR-3, cell line SKBR3): 151 nM | GI50 (SUM52PE, cell line SUM52PE, censored GI50 values): 398 nM | GI50 (SUM52PE, cell line SUM52PE): 398 nM | GI50 (SUM149PT, cell line SUM149PT, censored GI50 values): 191 nM | GI50 (SUM149PT, cell line SUM149PT): 191 nM | GI50 (SUM1315MO2, cell line SUM1315MO2, censored GI50 values): 33100 nM | GI50 (SUM-159-PT, cell line SUM159PT, censored GI50 values): 589 nM | GI50 (SUM-159-PT, cell line SUM159PT): 589 nM | GI50 (T47D, cell line T47D, censored GI50 values): 117 nM | GI50 (T47D, cell line T47D): 117 nM | GI50 (UACC-812, cell line UACC812, censored GI50 values): 1000 nM | GI50 (UACC-812, cell line UACC812): 1000 nM | GI50 (ZR-75-1, cell line ZR751, censored GI50 values): 33900 nM | GI50 (ZR-75-1, cell line ZR751): 33900 nM | GI50 (ZR-75B, cell line ZR75B, censored GI50 values): 145 nM | GI50 (ZR-75B, cell line ZR75B): 145 nM | GI50 (cell line 600MPE, censored GI50 values): 372 nM | GI50 (cell line 600MPE): 372 nM | GI50 (cell line HCC2185, censored GI50 values): 372 nM | GI50 (cell line HCC2185): 372 nM | GI50 (cell line HCC3153, censored GI50 values): 229 nM | GI50 (cell line HCC3153): 229 nM | GI50 (cell line LY2, censored GI50 values): 158 nM | GI50 (cell line LY2): 158 nM | GI50 (cell line MDAMB134V): 52.5 nM | GI50 (cell line MDAMB175V): 427 nM | GI50 (cell line SUM1315MO): 33100 nM

CN(Cc1cnc2nc(N)nc(N)c2n1)c1ccc(C(=O)N[C@@H](CCC(=O)O)C(=O)O)cc1 [Methotrexate]
GI50 (600MPE cell line, censored GI50 values): 166000 nM | GI50 (AU565, AU565 cell line, censored GI50 values): 166000 nM | GI50 (AU565, cell line AU565): 166000 nM | GI50 (BT-20, cell line BT20): 331000 nM | GI50 (BT-474, cell line BT474): 331000 nM | GI50 (BT-549, cell line BT549): 331000 nM | GI50 (CAMA-1, CAMA1 cell line, censored GI50 values): 79.4 nM | GI50 (CAMA-1, cell line CAMA1): 79.4 nM | GI50 (HCC38, cell line HCC38): 331000 nM | GI50 (HCC202, cell line HCC202): 20.4 nM | GI50 (HCC1143, HCC1143 cell line, censored GI50 values): 24 nM | GI50 (HCC1143, cell line HCC1143): 24 nM | GI50 (HCC1187, HCC1187 cell line, censored GI50 values): 166000 nM | GI50 (HCC1187, cell line HCC1187): 166000 nM | GI50 (HCC1395, cell line HCC1395): 331000 nM | GI50 (HCC1419, HCC1419 cell line, censored GI50 values): 166000 nM | GI50 (HCC1419, cell line HCC1419): 166000 nM | GI50 (HCC1428, cell line HCC1428): 331000 nM | GI50 (HCC1500, HCC1500 cell line, censored GI50 values): 30.9 nM | GI50 (HCC1500, cell line HCC1500): 30.9 nM | GI50 (HCC1806, HCC1806 cell line, censored GI50 values): 166000 nM | GI50 (HCC1806, cell line HCC1806): 166000 nM | GI50 (HCC1937, cell line HCC1937): 331000 nM | GI50 (HCC1954, HCC1954 cell line, censored GI50 values): 15.5 nM | GI50 (HCC1954, cell line HCC1954): 15.5 nM | GI50 (MCF7, cell line MCF7): 57.5 nM | GI50 (MDA-MB-157, cell line MDAMB157): 166000 nM | GI50 (MDA-MB-231, cell line MDAMB231): 331000 nM | GI50 (MDA-MB-361, cell line MDAMB361): 158 nM | GI50 (MDA-MB-415, cell line MDAMB415): 331000 nM | GI50 (MDA-MB-436, cell line MDAMB436): 20 nM | GI50 (MDA-MB-453, cell line MDAMB453): 331000 nM | GI50 (MDA-MB-468, cell line MDAMB468): 32.4 nM | GI50 (SK-BR-3, cell line SKBR3): 692 nM | GI50 (SUM52PE, cell line SUM52PE): 331000 nM | GI50 (SUM149PT, cell line SUM149PT): 331000 nM | GI50 (SUM185PE, cell line SUM185PE): 331000 nM | GI50 (SUM225CWN, cell line SUM225CWN): 331000 nM | GI50 (SUM-159-PT, cell line SUM159PT): 331000 nM | GI50 (ZR-75-1, cell line ZR751): 66.1 nM | GI50 (ZR-75B, cell line ZR75B): 331000 nM | GI50 (cell line 600MPE): 166000 nM | GI50 (cell line HCC2185): 331000 nM | GI50 (cell line LY2): 33.9 nM | GI50 (cell line MDAMB134V): 331000 nM | GI50 (cell line SUM1315MO): 331000 nM
